“Also recorded” adds a separate entry of the source.
Key:
[1] = tested on: adult PBMCs or neonatal CBMCs; assay: HEK-Blue IFNα/β SEAP assay on supernatants of stimulated mononuclear cells; type: cell-based, human; conditions: for innate immune response in neonatal and/or paediatric blood: compared with adult blood, summary statement
Protocol: Isolation of mononuclear cells and monocytes—Primary PBMCs or CBMCs were isolated from healthy human blood or cord blood. Monocytes were isolated by negative selection using Monocyte Isolation Kit II (Miltenyi). […] Cells were cultured at 37° C., 5% CO2, 95% air in RPMI-1640, with stable 2.5 mM L-glutamine and 0.5 mM sodium pyruvate with 10% FBS (all from Sigma-Aldrich).
(§1) Poly(I:C) (5 μg/ml) (Invivogen), Poly(dA:dT) (5 μg/ml) (Sigma-Aldrich), 2′3′ cGAMP (10 μg/ml), 5′ triphosphate double stranded RNA (5′ ppp dsRNA) (2.5 μg/ml) and HSV-60 (2 μg/ml) (all from Invivogen) were transfected into PBMCs or CBMCs using TransIT-X2 (Mirus).
(§2) Measurement of cytokines—HEK Blue TNFα/IFNα/β Assays were performed as per the manufacturer's (Invivogen) instructions using Quanti-Blue Detection Reagent. SEAP levels were determined using a spectrophotometer plate reader at 630 nm. IFNα (3425-1H-6, Mabtech) and IP-10 (DY266, R&D Systems) were detected by sandwich ELISA. IFNα ELISA used pan specific IFNα antibodies, which allows detection of IFNα subtypes 1/13, 2, 4, 5, 6, 7, 8, 10, 14, 16 and 17. BioLegend LEGENDplex™ Human Inflammation Panel (13-plex) was carried out as per manufacturer's (Biolegend) instructions to determine levels of IFNγ, IL-10, IL-12p70 and IL-23. A BD LSR Fortessa cell analyser was used to acquire samples and BioLegend LEGENDplex™ software was used for analysis.

PBMCs or CBMCs [2] = assay: CXCL10 (IP-10) ELISA; type: cell-based, human; conditions: CBMCs compared with PBMCs
Protocol: as §1, §2

IRF3 = assay: TransAM IRF3 activation assay on nuclear extracts; type: cell-based, human; conditions: CBMCs
Protocol: (§3) IRF3/7 activation—Active Motif TransAM™ IRF3 and IRF7 assays were carried out on nuclear extracts from PBMCs or CBMCs, harvested as per manufacturer's (Active Motif) instructions, to detect and quantify IRF3 or IRF7 activation.

PBMCs or CBMCs [3] = assay: IFNα sandwich ELISA on supernatants; type: cell-based, human; conditions: for IFNα secretion (ELISA): CBMCs compared with PBMCs, 8 or 24 h
Protocol: as §1, §2

PBMCs or CBMCs [4] = assay: BioLegend LEGENDplex Human Inflammation Panel; type: cell-based; conditions: CBMCs and PBMCs; Poly(I:C) 24 h, LPS 4 h, CpG ODN 24 h
Protocol: as §1, §2

PBMCs or CBMCs [5] = assay: Quantitative RT-PCR of TNFα, IFNα and CXCL10 mRNA; type: cell-based, human; conditions: CBMCs vs PBMCs
Protocol: as §1
Quantitative RT-PCR—Total RNA from PBMCs or CBMCs was extracted using trizol extraction as previously described (16) and was reverse transcribed using MMLV Reverse Transcriptase (Promega) according to the manufacturer's protocol. This cDNA served as template for amplification of target genes, along with the ‘housekeeping’ gene βActin, by real-time PCR with SensiFast SYBR Green (Bioline) to determine the relative amounts of CXCL10, IFNα and TNFα mRNA. The ABI 7900HT system (Applied Biosystems) was used for real-time PCR, and the cycling threshold method (2^−(ΔΔCt)) was used for relative quantification by comparative method after normalization to βActin expression.

[6] = tested on: mononuclear cells from cord blood, children's blood or adult blood; assay: HEK-Blue IFNα/β and TNFα assays on mononuclear cells of cord blood, children and adults; type: cell-based, human; conditions: transfection 24 h, 4-24 months, 2-5 years, 6-11 years
Description: Umbilical cord blood samples were obtained from term births following normal pregnancy, labour and delivery at National Maternity Hospital (NMH), Holles St, Dublin 2. […] Venous blood from infants, children and adolescents of various ages was collected during elective surgical procedures where no indication of infection was present (such as hydrocele repair, umbilical hernia repair, onychocryptosis, orchipexy repair) in Our Lady's Children's Hospital Crumlin (OLCHC), Dublin 12. […] Volumes drawn were age and weight dependent, according to standard, approved guidelines. Ethics approval was obtained from the Ethics Committees of NMH and OLCHC and informed consent was obtained from each subject or their parent/guardian. Adult blood samples were from healthy adults, supplied by the Irish Blood Transfusion Service. • Poly(I:C), Poly(dA:dT) and cGAMP were obtained from Invivogen • Poly (dA:dT) is a repetitive synthetic double-stranded DNA sequence of poly(dA-dT)-poly(dT-dA) http://www.invivopen.com/poly-dadt-naked • Poly (I:C) comprises long strands of inosine poly(I) homopolymer annealed to strands of cytidine poly(C) homopolymer http://www.invivogen.com/polyic-hmw. • cGAMP is cyclic [G(2′,5′)pA(3′,5′)p]; Formula: […], 2Na Methodology
Isolation of mononuclear cells and monocytes—Primary PBMCs or CBMCs were isolated from healthy human blood or cord blood. Monocytes were isolated by negative selection using Monocyte Isolation Kit II (Miltenyi). Monocyte purity was assessed using CD14 staining and was routinely 85-95%. Cells were cultured at 37° C., 5% CO2, 95% air in RPMI-1640, with stable 2.5 mM L-glutamine and 0.5 mM sodium pyruvate with 10% FBS (all from Sigma-Aldrich).
as §1, §2

IRF7 = assay: TransAM IRF7 activation assay on nuclear extracts; type: cell-based, human; conditions: CBMCs; LPS 15 min, CpG 1 h, Poly(I:C) transfection 1 h
Protocol: as §3

PBMCs or CBMCs [7] = assay: HEK-Blue TNFα assay on supernatants; type: cell-based, human; conditions: CBMCs compared with PBMCs; 4, 8 or 24 hours
Protocol: as §1, §2

bovine PBMCs = assay: Bovine IFN-γ ELISA on stimulated PBMCs; type: cell-based, cattle; conditions: calves <1 year old; ConA 1 μg/ml with or without LPS 100 pg/ml; 72 hours
Protocol: Bovine peripheral blood mononuclear cells were isolated from whole blood samples collected in 9m1 vacutainers containing Heparin anticoagulant. PBMCs were spun and separated using leucosep tubes (Cruinn) and a density gradient histopaque 1077 (Sigma-Aldrich) at a speed of 1200 g for 20 minutes. Red blood cell contamination was eliminated using sterile 0.25% sodium chloride (Baxter) as a lysis buffer. The cells were subsequently washed twice in PBS at a speed of 600 g for 10 minutes to remove impurities.
Cells were counted using a haemocytometer, microscope and trypan blue (Sigma Aldrich) and seeded at appropriate densities in tissue culture plates (Cruinn) containing media. The cells were incubated at 37° C. at 5% CO2 treated within hours of plating to avoid unwanted cell death.
When analysing the effects of IL-1β on T cell activation, cells were pre-treated with 250 μg/ml of IL-1 receptor antagonist (IL-1Ra) 40 minutes before stimulation with IL-1β (25 ng/ml). Cells were subsequently stimulated with concanavalin A (1 μg/ml) 1 hour after addition of IL-1β. Similarly, when analysing the effects of polydA:dT on T cell activation, cells were stimulated with polydA:dT (1 μg/ml) 1 hour before ConA treatment (1 μg/ml). LPS (100 pg/ml) primed cells were incubated with YVAD-FMK (10 μm), an inhibitor specific for caspase-1. After 40 minutes, the cells were stimulated with alum (50 μg/ml) for 24 hours and supernatants were then harvested and analysed by ELISA for IL-1β
Capture antibodies (50 μl/well), diluted in the appropriate buffers, were dispensed into the wells of high binding plates (Greiner Bio-One) and incubated overnight at room temperature or 4° C. For analysis of IL-17, the ELISA plates were pre-coated with capture antibody by the manufacturing before delivery. The wells were washed with PBS/Tween 3 times and the plates were then incubated with 150 μl of blocking buffer for 1 hour at room temperature. The plates were washed again before supernatant (neat or diluted) and recombinant standards were added for 1 hour at room temperature. Following this, the plates were washed and 50 μl of detection antibody was added to the wells for a period of 1 or 2 hours at room temperature. After washing, 50 μl diluted streptavidin-HRP was added to the plate for between 30 minutes and 1 hour. After the final wash, 50 μl of 3,3′-, 5,5′-Tetramethylbenzidine (TMB) substrate was added and the plates were incubated in the dark. The reaction was stopped by addition of 1M sulphuric acid and the absorbance readings were measured at 450 nm using a microtitre plate reader. The cytokine concentrations were calculated using a linear regression standard curve from recombinant cytokines of known concentration. Skanit™ software was used to estimate values.

polyinosinic-polycytidylic acid [Poly(I:C)]
innate immune response in neonatal and/or paediatric blood [1]: robust innate immune response in neonatal and/or paediatric blood
type I IFN (IFNα/β) production ([1]; neonatal CBMCs compared with adult PBMCs, stimulation 4, 8 or 24 h): no inhibition of type I IFN production in CBMCs when compared to PBMCs
CXCL10 protein secretion (PBMCs or CBMCs [2]): no significant difference in the CXCL10 response between PBMCs or CBMCs
increase in IRF3 activation above basal levels (IRF3): ~80%
IFNα secretion (ELISA) (PBMCs or CBMCs [3]): equivalent or enhanced CNA sensor responses in neonates compared to adults
IFNγ (PBMCs or CBMCs [4]): induces Th1 polarising IL-12p70 and IFNγ in CBMCs; also recorded: significantly increased in CBMCs compared to PBMCs; also recorded: neonates produced significantly higher levels of both IL-12p70 and IFNγ
IL-10 (PBMCs or CBMCs [4]): low but detectable, with no significant difference between adult and cord blood cells noted; also recorded: no difference in levels of anti-inflammatory IL-10 or Th17-polarising IL-23 between neonates and adults
IL-12p70 (PBMCs or CBMCs [4]): induces Th1 polarising IL-12p70 and IFNγ in CBMCs; also recorded: increased in CBMCs compared to PBMCs; also recorded: significantly enhanced response to Poly(I:C) transfection was found in CBMCs compared to PBMCs; also recorded: neonates produced significantly higher levels of both IL-12p70 and IFNγ
IL-23 (PBMCs or CBMCs [4]): low but detectable, with no significant difference between adult and cord blood cells noted; also recorded: no difference in levels of anti-inflammatory IL-10 or Th17-polarising IL-23 between neonates and adults
CXCL10 mRNA expression (PBMCs or CBMCs [5]; 4 h): no inhibition of transcription
IFNα mRNA expression (PBMCs or CBMCs [5]; 24 h): no inhibition of transcription
TNFα mRNA expression (PBMCs or CBMCs [5]; CNA 4 h, LPS 2 h): no significant difference in TNFα levels
TNFα production across age groups [6]: maintenance of cord blood responsiveness to CNA was also observed for both Poly(I:C) and Poly(dA:dT)-induced TNFα production to the age of 24 months
production of type I IFN across age groups [6]: maintained throughout childhood; also recorded: maintained up to the age of two
IRF7 activation (IRF7): not significantly activated
TNFα production (PBMCs or CBMCs [7]): significantly more TNFα production from neonatal cells than from adult cells

interleukin 1: cytokine interleukin 1 added with ConA [reference compound]
IFN-γ secretion by ConA stimulated bovine PBMCs (bovine PBMCs): enhanced IFN production

CCCc1nc2c(N)nc3ccccc3c2s1 [CL075, reference compound]
TNFα production (PBMCs or CBMCs [7]): no significant difference in TNFα production

Nc1nc2c(ncn2[C@@H]2O[C@@H]3COP(=O)(O)O[C@H]4[C@@H](O)[C@H](n5cnc6c(N)ncnc65)O[C@@H]4COP(=O)(O)O[C@@H]2[C@@H]3O)c(=O)[nH]1 [cGAMP, cyclic [G(2′,5′)pA(3′,5′)p]]
innate immune response in neonatal and/or paediatric blood [1]: robust innate immune response in neonatal and/or paediatric blood
IFNα secretion (ELISA) (PBMCs or CBMCs [3]): CBMCs responded equally well or with enhanced IFNα-production when compared with PBMCs
level of IFNα produced, relative to Poly(I:C) or Poly(dA:dT) (PBMCs or CBMCs [3]; adult and neonatal cells): lower than that in response to either Poly(I:C) or Poly(dA:dT)
TNFα production (PBMCs or CBMCs [7]): significantly more TNFα production from neonatal cells than from adult cells
